Consider five compounds from patent publication US20090117127A1, “Novel Compounds and Methods for Their Production” (priority 2006, published 2009).

SMILES strings stand for the structures.

For experiment [1], the target named is Hsp90 (Homo sapiens, UniProt P07900). To be noted: cited from earlier work.
Experiment [2] deals with CNXF 498NL. Description: monolayer proliferation assay, modified propidium iodide assay. It is filed as cell-based, human. As to conditions: CNXF 498NL (CNS), 4 days continuous exposure. Here is the method: (§1) In vitro evaluation of compounds for anticancer activity in a panel of human tumour cell lines in a monolayer proliferation assay was carried out at the Oncotest Testing Facility, Institute for Experimental Oncology, Oncotest GmbH, Freiburg.
(§2) The Oncotest cell lines are established from human tumor xenografts as described by Roth et al., (1999). The origin of the donor xenografts was described by Fiebig et al., (1999). Other cell lines are either obtained from the NCI (DU145, MCF-7) or purchased from DSMZ, Braunschweig, Germany.
(§3) All cell lines, unless otherwise specified, were grown at 37° C. in a humidified atmosphere (95% air, 5% CO2) in a ‘ready-mix’ medium containing RPMI 1640 medium, 10% fetal calf serum, and 0.1 mg/mL gentamicin (PAA, Cölbe, Germany).
(§4) A modified propidium iodide assay was used to assess the effects of the test compound(s) on the growth of human tumour cell lines (Dengler et al., (1995)).
(§5) Briefly, cells were harvested from exponential phase cultures by trypsinization, counted and plated in 96 well flat-bottomed microtitre plates at a cell density dependent on the cell line (5-10.000 viable cells/well). After 24 h recovery to allow the cells to resume exponential growth, 0.010 mL of culture medium (6 control wells per plate) or culture medium containing the 11-O-desmethylmacbecin analogue were added to the wells. Each concentration was plated in triplicate. Compounds were applied in two concentrations (1 μg/mL and 10 μg/mL). Following 4 days of continuous exposure, cell culture medium with or without test compound was replaced by 0.2 mL of an aqueous propidium iodide (PI) solution (7 mg/L). To measure the proportion of living cells, cells were permeabilized by freezing the plates. After thawing the plates, fluorescence was measured using the Cytofluor 4000 microplate reader (excitation 530 nm, emission 620 nm), giving a direct relationship to the total number of viable cells. Growth inhibition was expressed as treated/control×100 (% T/C).
(§6) In vitro evaluation of the test compounds for anticancer activity in a panel of human tumour cell lines in a monolayer proliferation assay was carried out as described in the general methods using a modified propidium iodide assay.

Experiment [3] deals with CXF HT29. The description is as above. The format is cell-based, human. As to conditions: CXF HT29 (colon), 4 days continuous exposure. Here is the method:
as §1, §2, §3, §4, §5, §6

Experiment [4] concerns DU145. Described as above. As to conditions: DU145 (prostate, PTEN positive), 4 days continuous exposure. It is filed as cell-based, human. The method, then:
as §1, §2, §3, §4, §5, §6

Experiment [5] deals with LXF 1121L. The description is as above. The format is cell-based, human. As to conditions: LXF 1121L (lung, large cell ca), 4 days continuous exposure. Here is the method:
as §1, §2, §3, §4, §5, §6

Experiment [6] relates to MCF-7. The description is as above. The format is cell-based, human. To be noted: MCF-7 (breast), 4 days continuous exposure. Here is the method: as §1, §2, §3, §4, §5, §6
Experiment [7] has as its system MEXF 394NL. The description is as above. The format is cell-based, human. To be noted: MEXF 394NL (melanoma), 4 days continuous exposure. The method, then:
as §1, §2, §3, §4, §5, §6

Experiment [8] has as its system Reverse transcriptase. As to conditions: cited from earlier work.
The target of experiment [9] is terminal deoxynucleotidyl transferase (Homo sapiens, UniProt P04053). As to conditions: cited from earlier work.
Sequence of terminal deoxynucleotidyl transferase (P04053 whole entry, species assumed): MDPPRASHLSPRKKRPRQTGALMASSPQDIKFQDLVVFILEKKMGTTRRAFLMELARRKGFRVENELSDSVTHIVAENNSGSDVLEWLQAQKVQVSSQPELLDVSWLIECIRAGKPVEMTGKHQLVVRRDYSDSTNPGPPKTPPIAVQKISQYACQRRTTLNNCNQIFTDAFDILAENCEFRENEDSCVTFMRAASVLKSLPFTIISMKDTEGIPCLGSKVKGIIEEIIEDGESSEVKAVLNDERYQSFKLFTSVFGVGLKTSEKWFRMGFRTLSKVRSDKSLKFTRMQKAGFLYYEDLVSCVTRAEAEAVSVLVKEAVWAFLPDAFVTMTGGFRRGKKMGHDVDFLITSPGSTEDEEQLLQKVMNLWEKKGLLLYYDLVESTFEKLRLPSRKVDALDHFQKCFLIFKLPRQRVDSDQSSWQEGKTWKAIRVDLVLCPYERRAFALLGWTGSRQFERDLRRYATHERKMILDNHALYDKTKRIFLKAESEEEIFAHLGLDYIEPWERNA

For the compound `CO[C@H]1C[C@H](C)Cc2cc(O)cc(c2)NC(=O)/C=C/CC[C@H](OC)[C@@H](OC(N)=O)/C(C)=C/[C@H](C)[C@H]1O` [KOSN1559], the “binding affinity to Hsp90, greater than 17-AAG” value in experiment [1] (relative to 17-AAG) was 8 fold. Also, the “binding affinity to Hsp90, greater than geldanamycin” value in [1] (relative to geldanamycin) was 4 fold.

Take `CO[C@H]1[C@@H](OC)C[C@H](C)[C@@H](OC)C2=CC(=O)C=C(NC(=O)/C(C)=C/C=C\[C@H](C)[C@@H](OC(N)=O)/C(C)=C/[C@@H]1C)C2=O` [Macbecin, macbecin, reference compound]: the “Test/Control (%) at drug concentration” value in experiment [2] (1 μg/mL) is 29%; in experiment [2] (10 μg/mL), 14%; in experiment [3] (1 μg/mL), 22%; in experiment [3] (10 μg/mL), 8%; in experiment [4] (1 μg/mL), 13%; in [4] (10 μg/mL), 5%. Besides, the “Test/Control (%) at drug concentration” value in experiment [5] (1 μg/mL) amounted to 30%; in experiment [5] (10 μg/mL), 17%; in [6] (1 μg/mL), 42%; in experiment [6] (10 μg/mL), 19%; in [7] (1 μg/mL), 16%; in experiment [7] (10 μg/mL), 13%. Besides, in experiment [8], the “inhibition of reverse transcriptase activity” value was “not inhibited”. In addition, the “inhibition of terminal deoxynucleotidyl transferase activity” value in [9] is “not inhibited”.

Turning to `CO[C@H]1C[C@H](C)[C@@H](O)C2=CC(=O)C=C(NC(=O)/C(C)=C/C=C\[C@H](C)[C@@H](OC(N)=O)/C(C)=C/[C@H](C)[C@H]1O)C2=O` [compound 14, 11-O-desmethyl-15-O-desmethylmacbecin], the “Test/Control (%) at drug concentration” value is 82.7% in experiment [2] (1 μg/mL); 45.3% in experiment [2] (10 μg/mL); 88.7% in experiment [3] (1 μg/mL); 55% in experiment [3] (10 μg/mL); 78.7% in experiment [4] (1 μg/mL); 35% in experiment [4] (10 μg/mL). The “Test/Control (%) at drug concentration” value in [5] (1 μg/mL) came out at 83.3%; in [5] (10 μg/mL), 57.7%; in experiment [6] (1 μg/mL), 83.7%; in experiment [6] (10 μg/mL), 58.7%; in experiment [7] (1 μg/mL), 50.7%; in [7] (10 μg/mL), 77%.

As to `CO[C@H]1C[C@H](C)CC2=CC(=O)C=C(NC(=O)/C(C)=C/C=C\[C@H](C)[C@@H](OC(N)=O)/C(C)=C/[C@H](C)[C@H]1O)C2=O` [compound 15, 11-O-desmethyl-15-desmethoxymacbecin], the “Test/Control (%) at drug concentration” value in experiment [2] (1 μg/mL) is listed as 30%; in experiment [2] (10 μg/mL) it was 9%; in experiment [3] (1 μg/mL), 37.7%; in [3] (10 μg/mL) it was 9%; in experiment [4] (1 μg/mL) it was 16.3%; in experiment [4] (10 μg/mL), 6%. Moreover, the “Test/Control (%) at drug concentration” value in experiment [5] (1 μg/mL) is 57.7%; in experiment [5] (10 μg/mL), 11.7%; in experiment [6] (1 μg/mL), 49.3%; in experiment [6] (10 μg/mL), 13.7%; in experiment [7] (1 μg/mL), 22%; in experiment [7] (10 μg/mL) it was 5%.

As for `CO[C@H]1C[C@H](C)CC2=CC(=O)C=C(NC(=O)/C(C)=C/CC[C@H](C)[C@@H](OC(N)=O)/C(C)=C/[C@H](C)[C@H]1O)C2=O` [compound 17, 4,5-dihydro-11-O-desmethyl-15-desmethoxymacbecin], the “Test/Control (%) at drug concentration” value is given as 35% in experiment [2] (1 μg/mL); 8% in experiment [2] (10 μg/mL); 52% in [3] (1 μg/mL); 6% in experiment [3] (10 μg/mL); 18% in [4] (1 μg/mL); 5% in [4] (10 μg/mL). For the same compound, the “Test/Control (%) at drug concentration” value in experiment [5] (1 μg/mL) came out at 55%; in experiment [5] (10 μg/mL), 17%; in experiment [6] (1 μg/mL) it was 35%; in experiment [6] (10 μg/mL) it was 5%; in [7] (1 μg/mL), 38%; in [7] (10 μg/mL), 4%.
